Data as given in the supplement of paper PMC10307832.

Experiments:
Experiment in all cases: relative viability (nuclei count vs DMSO), 5 days (fraction); higher = more cells survive
AT9283 + Linsitinib = compound: O=C(Nc1c[nH]nc1-c1nc2ccc(CN3CCOCC3)cc2[nH]1)NC1CC1 [AT9283] + C[C@]1(O)C[C@@H](c2nc(-c3ccc4ccc(-c5ccccc5)nc4c3)c3c(N)nccn32)C1 [Linsitinib] (partner 1 µM)
Procedure, shortened: (§1)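 Relative viability was taken as the ratio of nuclei in treated wells to nuclei in vehicle wells. Lung cancer cell lines in 1536-well plates received compounds by pin tool one day after seeding, either one drug alone or a fixed anchor-drug dose plus five library-drug doses (not always all listed) in √10 steps. Nuclei were counted on 4× images after 5 days of treatment, and values are medians of duplicate plates.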

Erlotinib + Linsitinib = compound: C#Cc1cccc(Nc2ncnc3cc(OCCOC)c(OCCOC)cc23)c1 [Erlotinib] + C[C@]1(O)C[C@@H](c2nc(-c3ccc4ccc(-c5ccccc5)nc4c3)c3c(N)nccn32)C1 [Linsitinib] (partner 1 µM)
Procedure, shortened: as §1

AT9283 + Trametinib = compound: O=C(Nc1c[nH]nc1-c1nc2ccc(CN3CCOCC3)cc2[nH]1)NC1CC1 [AT9283] + CC(=O)Nc1cccc(-n2c(=O)n(C3CC3)c(=O)c3c(Nc4ccc(I)cc4F)n(C)c(=O)c(C)c32)c1 [Trametinib] (partner 0.02 µM)
Procedure, shortened: as §1

Erlotinib + Phenformin = compound: C#Cc1cccc(Nc2ncnc3cc(OCCOC)c(OCCOC)cc23)c1 [Erlotinib] + N=C(N)NC(=N)NCCc1ccccc1 [Phenformin] (partner 250 µM)
Procedure, shortened: as §1

AT9283 + Olaparib = compound: O=C(Nc1c[nH]nc1-c1nc2ccc(CN3CCOCC3)cc2[nH]1)NC1CC1 [AT9283] + O=C(c1cc(Cc2n[nH]c(=O)c3ccccc23)ccc1F)N1CCN(C(=O)C2CC2)CC1 [Olaparib] (partner 8 µM)
Procedure, shortened: as §1

Cell Line | relative viability (AT9283 + Linsitinib; first compound 0.003 µM) | relative viability (AT9283 + Linsitinib; first compound 0.03 µM) | relative viability (AT9283 + Linsitinib; first compound 0.09487 µM) | relative viability (AT9283 + Linsitinib; first compound 0.3 µM) | relative viability (Erlotinib + Linsitinib; first compound 0.02 µM) | relative viability (Erlotinib + Linsitinib; first compound 0.2 µM) | relative viability (Erlotinib + Linsitinib; first compound 0.6325 µM) | relative viability (Erlotinib + Linsitinib; first compound 2 µM) | relative viability (AT9283 + Trametinib; first compound 0.003 µM) | relative viability (AT9283 + Trametinib; first compound 0.03 µM) | relative viability (AT9283 + Trametinib; first compound 0.09487 µM) | relative viability (AT9283 + Trametinib; first compound 0.3 µM) | relative viability (Erlotinib + Phenformin; first compound 0.02 µM) | relative viability (Erlotinib + Phenformin; first compound 0.2 µM) | relative viability (Erlotinib + Phenformin; first compound 0.6325 µM) | relative viability (Erlotinib + Phenformin; first compound 2 µM) | relative viability (AT9283 + Olaparib; first compound 0.003 µM) | relative viability (AT9283 + Olaparib; first compound 0.03 µM) | relative viability (AT9283 + Olaparib; first compound 0.09487 µM) | relative viability (AT9283 + Olaparib; first compound 0.3 µM)
201T | 1.02 | 1.02 | 0.8 | 0.409 | 0.968 | 0.933 | 1.01 | 0.854 | 0.734 | 0.753 | 0.388 | 0.338 | 0.468 | 0.408 | 0.465 | 0.421 | 0.867 | 0.815 | 0.356 | 0.335
A549 | 0.539 | 0.311 | 0.0598 | 0.0613 | 0.546 | 0.523 | 0.63 | 0.489 | – | – | – | – | 0.225 | 0.196 | 0.178 | 0.199 | 0.358 | 0.0601 | 0.0514 | 0.069
A-427 | 0.834 | 1.03 | 0.276 | 0.205 | 1.15 | 1.1 | 1.12 | 1.12 | 0.706 | 0.501 | 0.334 | 0.396 | 0.282 | 0.344 | 0.423 | 0.335 | 0.652 | 0.428 | 0.292 | 0.27
ABC-1 | 0.722 | 0.211 | 0.182 | 0.182 | 0.928 | 0.674 | 0.776 | 0.686 | – | – | – | – | 0.248 | 0.248 | 0.217 | 0.233 | 0.853 | 0.324 | 0.551 | 0.417
BEN | 0.718 | 0.894 | 0.2 | 0.227 | 0.96 | 0.893 | 1.16 | 0.891 | 0.838 | 1.17 | 0.568 | 0.368 | 0.276 | 0.248 | 0.273 | 0.269 | 0.969 | 0.747 | 0.481 | 0.298
CAL-12T | 0.905 | 0.286 | 0.22 | 0.202 | 0.804 | 0.654 | 0.5 | 0.368 | 0.421 | 0.399 | 0.211 | 0.152 | 0.543 | 0.396 | 0.339 | 0.262 | 0.734 | 0.536 | 0.307 | 0.222
COR-L23 | 0.867 | 0.152 | 0.0945 | 0.135 | 1.21 | 0.95 | 1.07 | – | 0.668 | 0.245 | 0.166 | 0.161 | 0.439 | 0.452 | 0.448 | 0.416 | 0.331 | 0.156 | 0.115 | 0.137
COR-L 105 | 0.854 | 0.333 | 0.221 | 0.288 | 0.907 | 0.532 | 0.385 | 0.289 | 0.399 | 0.395 | 0.328 | 0.297 | 0.525 | 0.245 | 0.322 | 0.216 | 0.625 | 0.408 | 0.37 | 0.325
Calu-6 | 0.859 | 0.286 | 0.222 | 0.197 | 1.01 | 0.913 | 0.902 | 0.816 | – | – | – | – | – | – | – | – | 0.575 | 0.228 | 0.178 | 0.197
ChaGo-K-1 | – | – | – | – | – | – | – | – | 0.78 | 0.844 | 0.494 | 0.205 | 0.507 | 0.445 | 0.482 | 0.437 | 0.444 | 0.352 | 0.252 | 0.203
EBC-1 | 0.997 | 0.354 | 0.214 | 0.111 | 0.918 | 0.969 | 1.06 | 0.699 | – | – | – | – | – | – | – | – | 0.669 | 0.334 | 0.18 | 0.145
EKVX | 0.966 | 0.79 | 0.434 | 0.204 | 0.941 | 0.395 | 0.235 | 0.117 | 0.361 | 0.345 | 0.32 | 0.191 | 0.245 | 0.205 | 0.127 | 0.137 | 0.796 | 0.758 | 0.496 | 0.239
EMC-BAC-2 | 0.85 | 0.634 | 0.205 | 0.226 | 0.795 | 0.705 | 0.703 | 0.584 | 0.923 | 0.58 | 0.362 | 0.336 | 0.578 | 0.571 | 0.559 | 0.502 | 0.502 | 0.301 | 0.261 | 0.203
EPLC-272H | 1.26 | 1.25 | 0.973 | 0.183 | 1.11 | 1.18 | 1.06 | 0.802 | 0.285 | 0.287 | 0.161 | 0.152 | 0.353 | 0.254 | 0.321 | 0.212 | 0.698 | 0.18 | 0.107 | 0.119
H3255 | 0.877 | 0.91 | 0.298 | 0.132 | 0.971 | 0.297 | 0.188 | 0.115 | 0.65 | 0.614 | 0.459 | 0.284 | 0.374 | 0.226 | 0.246 | 0.243 | 0.553 | 0.52 | 0.545 | 0.231
HARA | 0.428 | 0.879 | 0.0968 | 0.0955 | 1.13 | 0.834 | 0.59 | 0.197 | 0.691 | 0.203 | 0.118 | 0.151 | 0.44 | 0.407 | 0.444 | 0.243 | 0.756 | 0.278 | 0.205 | 0.179
HCC-15 | 0.831 | 0.424 | 0.155 | 0.146 | 0.927 | 0.922 | 1 | – | 0.377 | 0.381 | 0.178 | 0.149 | 0.472 | 0.491 | 0.63 | 0.382 | 0.691 | 0.574 | 0.192 | 0.183
